Like-named read-outs stand apart in the source and are kept apart here.
Biological target: T1, Human ROCK1 protein (amino acids 1–477) (Homo sapiens, UniProt Q13464)
T1 construct: purchased Carna Biosciences 01-109
Experiment: ROCK1 HTRF KinEASE-STK S2 biochemical activity assay
Details: for S0 / Sinf / nHill: curve fit parameter; for Ki: average +/- standard deviation of three measurements, 3 μM ATP
Procedure: Human ROCK1 protein (amino acids 1–477 from accession number NP_05397.1) was purchased from Carna Biosciences (Cat# 01-109). This sequence contains the catalytic domain of the protein, and the biochemical activity was measured by the HTRF KinEASE-STK S2 Kit (Cisbio, Cat# 62ST2PEB) according to the manufacturer’s protocol. To determine the IC50, compounds were first dispensed by the Echo Liquid Handler (Labcyte) into white 384-well plates (PerkinElmer, Cat# 6008289). A total of 3 μL of 2x ROCK1 enzyme solution was added to the compounds, followed by a 10 min incubation at room temperature. Then, 2x ATP and STK S2 peptide solution were added to initiate the one-hour enzyme reaction at room temperature. The final condition of the reaction was 1.5 nM Rock1, 3 μM ATP, 0.5 μM STK S2 peptide in 50 mM HEPES pH7.2, 10 mM MgCl2, 0.1% BGG, 0.005% Brij-35, 1 mM DTT. The reaction was quenched by adding 6 μL of the detection mixture that contained Streptavidin XL665 and STK Antibody-Cryptate (Cisbio) and incubated for 1 hour at room temperature. The HTRF (665 nm/620 nm) signal was read on the PHERAstar reader (BMG Labtech). All measurements were done in triplicate.

[1] = 2021-01-17 ROCK1 HTRF (n=1) 665/620, no unit printed (values equal the uM IC50 of the 7th table x 1e-6), read-out: qAC50
[2] = 2021-01-17 ROCK1 HTRF (n=1) 665/620 Activity [%]
[3] = 2021-01-18 ROCK1 (n=3) 665/620, no unit printed (values equal the uM IC50 of the 7th table x 1e-6), read-out: qAC50
[4] = 2021-01-18 ROCK1 (n=3) 665/620 Activity [%]
[5] = 2021-01-18 ROCK1 HTRF (n=2) 665/620, no unit printed (values equal the uM IC50 of the 7th table x 1e-6), read-out: qAC50
[6] = 2021-01-18 ROCK1 HTRF (n=2) 665/620 Activity [%]
[7] = Supplementary Figure 4 source data, unit inferred, read-out: hit IC50

T1 sequence (Q13464 1-477): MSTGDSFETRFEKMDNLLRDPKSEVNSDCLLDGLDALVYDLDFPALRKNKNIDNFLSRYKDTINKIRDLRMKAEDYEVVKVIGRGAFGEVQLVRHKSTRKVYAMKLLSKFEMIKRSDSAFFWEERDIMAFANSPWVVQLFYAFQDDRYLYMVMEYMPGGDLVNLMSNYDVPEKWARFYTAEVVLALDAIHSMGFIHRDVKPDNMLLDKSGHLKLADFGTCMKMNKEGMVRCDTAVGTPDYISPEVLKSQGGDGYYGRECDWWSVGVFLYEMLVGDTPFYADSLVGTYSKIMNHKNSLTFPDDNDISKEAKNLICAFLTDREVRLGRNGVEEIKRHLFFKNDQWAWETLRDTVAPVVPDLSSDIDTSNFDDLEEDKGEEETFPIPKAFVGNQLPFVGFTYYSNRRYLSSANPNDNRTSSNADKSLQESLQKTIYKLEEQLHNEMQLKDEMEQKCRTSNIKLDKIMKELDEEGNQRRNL

CC(CNC(=O)c1ccc(-c2cn[nH]c2)cc1)N1CCc2ccccc21 (stereo not drawn) [Compound 2]
IC50 [1]: 0.108 µM
S0 [2]: -2.075%
Sinf [2]: -98.9577%
nHill (2021-01-17 ROCK1 HTRF (n=1)): 1.042
IC50 [3]: 0.101 µM
S0 [4]: 1.158%
Sinf [4]: -99.9466%
nHill (2021-01-18 ROCK1 (n=3)): 0.9439
IC50 [5]: 0.1 µM
S0 [6]: -0.7898%
Sinf [6]: -98.8967%
nHill (2021-01-18 ROCK1 HTRF (n=2)): 0.9788
IC50 [7]: 0.103 µM
Ki: 49 ± 2 nM

CC(Cc1ccc(F)cc1F)NC(=O)c1ccc(-c2cn[nH]c2)cc1 (racemic) [Compound 3]
IC50 [1]: 0.22 µM
S0 [2]: 1.865%
Sinf [2]: -99.1673%
nHill (2021-01-17 ROCK1 HTRF (n=1)): 1.058
IC50 [3]: 0.121 µM
S0 [4]: -2.06%
Sinf [4]: -95.7048%
nHill (2021-01-18 ROCK1 (n=3)): 1.245
IC50 [5]: 0.136 µM
S0 [6]: -2.159%
Sinf [6]: -97.6218%
nHill (2021-01-18 ROCK1 HTRF (n=2)): 1.01
IC50 [7]: 0.159 µM
Ki: 76 ± 26 nM

CSc1cccc(F)c1CNC(=O)c1ccc(-c2cn[nH]c2)cc1 [Compound 5]
IC50 [1]: 0.173 µM
S0 [2]: 3.131%
Sinf [2]: -99.2397%
nHill (2021-01-17 ROCK1 HTRF (n=1)): 1.067
IC50 [3]: 0.171 µM
S0 [4]: -0.4047%
Sinf [4]: -100.142%
nHill (2021-01-18 ROCK1 (n=3)): 0.9507
IC50 [5]: 0.17 µM
S0 [6]: 3.5105%
Sinf [6]: -98.3773%
nHill (2021-01-18 ROCK1 HTRF (n=2)): 1.136
IC50 [7]: 0.171 µM
Ki: 82 ± 1 nM

COCc1cccc(CC(=O)Nc2ccc(-c3cn[nH]c3)cc2)c1 [Compound 1]
IC50 [1]: 0.0793 µM
S0 [2]: -0.5714%
Sinf [2]: -100.2%
nHill (2021-01-17 ROCK1 HTRF (n=1)): 1.046
IC50 [3]: 0.0806 µM
S0 [4]: -1.802%
Sinf [4]: -99.1388%
nHill (2021-01-18 ROCK1 (n=3)): 1.109
IC50 [5]: 0.0814 µM
S0 [6]: -5.692%
Sinf [6]: -99.1049%
nHill (2021-01-18 ROCK1 HTRF (n=2)): 1.139
IC50 [7]: 0.08 µM
Ki: 38 ± 1 nM

O=C(NCC1(Cc2ccccc2)CC1)c1ccc(-c2cn[nH]c2)cc1 [Compound 4]
IC50 [1]: 0.197 µM
S0 [2]: -5.337%
Sinf [2]: -98.9033%
nHill (2021-01-17 ROCK1 HTRF (n=1)): 1.05
IC50 [3]: 0.147 µM
S0 [4]: -5.138%
Sinf [4]: -96.0861%
nHill (2021-01-18 ROCK1 (n=3)): 1.483
IC50 [5]: 0.15 µM
S0 [6]: -6.676%
Sinf [6]: -95.9487%
nHill (2021-01-18 ROCK1 HTRF (n=2)): 1.644
IC50 [7]: 0.165 µM
Ki: 79 ± 13 nM

CC(NC(=O)c1ccc(-c2cn[nH]c2)cc1)C1CC1c1ccccc1 (mixture of isomers) [Compound 6]
IC50 [1]: 0.248 µM
S0 [2]: 0.4458%
Sinf [2]: -96.8224%
nHill (2021-01-17 ROCK1 HTRF (n=1)): 1.0903
IC50 [3]: 0.14 µM
S0 [4]: -2.655%
Sinf [4]: -93.6754%
nHill (2021-01-18 ROCK1 (n=3)): 1.532
IC50 [5]: 0.157 µM
S0 [6]: 3.31%
Sinf [6]: -94.0095%
nHill (2021-01-18 ROCK1 HTRF (n=2)): 1.2951
IC50 [7]: 0.182 µM
Ki: 87 ± 28 nM

From PMC9616902, “Chemical space docking enables large-scale structure-based virtual screening to discover ROCK1 kinase inhibitors” (Nature Communications, 2022)
